Results reported in paper PMC12152883, “Bile acids inhibit equilibrative adenosine transport to alter adenosine receptor signaling in cholestasis” (The Journal of Biological Chemistry, 2025).
Where “and” joins values, the source holds several entries; their conditions need not be identical. Identical values can stand only once. Like-named read-outs stand apart in the source and are kept apart here.

Key:
ENT3 = target: T1, ENT3 (Homo sapiens, UniProt Q9BZD2); assay: Inhibition of 3H-nucleoside influx by BAs in ENT3-expressing Xenopus oocytes; assay type: cell-based
T1 construct: plasma membrane–directed ENT3 with a truncated N-terminus (that harbors lysosomal targeting motif); expressed in transfected cells; host or cells: Xenopus laevis oocytes injected with in vitro-transcribed mRNA from pOX-Δ36hENT3
T1 sequence (Q9BZD2 with tags, fused parts or gaps): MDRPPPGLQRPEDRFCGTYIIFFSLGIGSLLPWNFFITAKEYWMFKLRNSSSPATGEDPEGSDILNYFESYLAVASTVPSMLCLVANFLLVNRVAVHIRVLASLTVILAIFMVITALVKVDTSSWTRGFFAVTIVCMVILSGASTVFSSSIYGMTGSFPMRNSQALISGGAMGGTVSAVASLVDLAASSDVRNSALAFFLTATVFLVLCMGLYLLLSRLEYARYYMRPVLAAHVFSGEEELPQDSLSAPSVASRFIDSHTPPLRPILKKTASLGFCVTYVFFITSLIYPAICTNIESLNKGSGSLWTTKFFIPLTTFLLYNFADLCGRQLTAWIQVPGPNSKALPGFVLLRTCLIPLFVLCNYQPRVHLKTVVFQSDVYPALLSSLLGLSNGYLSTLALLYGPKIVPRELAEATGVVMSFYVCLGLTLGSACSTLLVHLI
Source text: We expressed individual ENTs (ENT1, ENT2, and ENT3) in X. laevis oocytes (as described above) and analyzed the Ado influx from each of the ENTs in the presence of different BAs to better understand whether the inhibition profiles differ across human ENTs. […] We also conducted an analysis of the concentration-dependent inhibition of Ado transport to estimate the IC50 values of the BAs (Fig. 4, D–F and Table 2).
Inhibition of Ado influx in H2O- and ENT-injected oocytes by treatment with different BAs at 100 μM. D–F, concentration-dependent inhibition of Ado influx in ENT-injected oocytes by different BAs. The bars represent the mean ± SD (n = 8–12 oocytes). A representative experiment from 3 to 5 independent experiments is presented. Statistical analysis was performed using one-way ANOVA with Dunnett’s multiple comparisons test; ∗p < 0.032, ∗∗p < 0.0021, ∗∗∗∗p < 0.0001.
The generated pOX expression constructs were linearized with either the Not1 or Sac1 restriction enzymes. The digested products were purified via phenol‒chloroform extraction. The mRNAs were synthesized using mMESSAGE mMACHINE (Ambion) transcription kits according to the manufacturer’s instructions. The mRNAs were purified via lithium precipitation. Oocytes were procured from Ecocyte. Prior to experiments, procured oocytes were defolliculated by treating with collagenase A-OR II solution followed by washing with Barth’s solution. Following microscopic verification, selected oocytes were incubated to recover overnight at 25 °C in a shaker incubator. Fifty nanoliters (400–800 ng/μl) of equal amounts of mRNAs were injected into defolliculated oocytes the next day. Expression of plasmids was analyzed after RNA isolation from oocyte extracts and conducting qPCR analysis with gene-specific primers as described earlier ([30]). The injected oocytes were incubated at 15 °C for 24 h before transport assays were performed. […] Uptake was terminated by washing the oocytes three times with arrest buffer containing 20 mM uridine. Individual oocytes were shaken overnight in 10% SDS for complete dissolution, and then the radioactivity was quantified with a Beckman liquid scintillation counter. The data are presented as the mean ± SD (n = 8–12 oocytes). A representative experiment from 3 to 5 independent experiments is presented.

ENT2 = target: T2, ENT2 (Homo sapiens, UniProt Q14542); assay: Radiolabeled BA transport in ENT2 mRNA-injected Xenopus oocytes; assay type: cell-based; design: expressed in transfected cells; host or cells: Xenopus laevis oocytes injected with in vitro-transcribed capped mRNA from pOX-hENT2; settings: for fold increased transport activity compared with H2O-injected oocytes: 3H-labelled BA, Na+-containing buffer, pH 7.4
T2 sequence (Q14542 1-456): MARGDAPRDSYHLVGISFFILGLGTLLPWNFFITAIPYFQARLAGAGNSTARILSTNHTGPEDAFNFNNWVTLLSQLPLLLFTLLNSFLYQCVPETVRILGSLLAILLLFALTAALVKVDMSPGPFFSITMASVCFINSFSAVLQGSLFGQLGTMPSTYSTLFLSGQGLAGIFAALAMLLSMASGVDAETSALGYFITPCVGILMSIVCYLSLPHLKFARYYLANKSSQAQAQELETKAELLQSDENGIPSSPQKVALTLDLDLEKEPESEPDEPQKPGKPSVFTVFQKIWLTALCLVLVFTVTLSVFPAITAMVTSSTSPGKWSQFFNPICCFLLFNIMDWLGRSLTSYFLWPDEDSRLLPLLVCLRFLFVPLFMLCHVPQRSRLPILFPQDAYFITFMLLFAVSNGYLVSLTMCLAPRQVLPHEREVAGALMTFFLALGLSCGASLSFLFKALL
Procedure: We used a Xenopus oocyte-based transport assay that was previously used to examine BA transport by plasma membrane–directed ENT3 with a truncated N-terminus (that harbors lysosomal targeting motif) to experimentally verify whether ENT2 is capable of translocating BAs across the cell membrane ([24]). We tested both ENT1 and ENT2 along with CNT2, a purine nucleoside-specific concentrative transporter, to investigate their capacities to transport radiolabeled BAs. […] Transport was measured at pH 7.4, which is the closest pH to the pH of the extracellular fluid in which cells are exposed to solutes such as BAs to conduct plasma membrane transport ([29]).
The generated pOX expression constructs were linearized with either the Not1 or Sac1 restriction enzymes. The digested products were purified via phenol‒chloroform extraction. The mRNAs were synthesized using mMESSAGE mMACHINE (Ambion) transcription kits according to the manufacturer’s instructions. The mRNAs were purified via lithium precipitation. Oocytes were procured from Ecocyte. Prior to experiments, procured oocytes were defolliculated by treating with collagenase A-OR II solution followed by washing with Barth’s solution. Following microscopic verification, selected oocytes were incubated to recover overnight at 25 °C in a shaker incubator. Fifty nanoliters (400–800 ng/μl) of equal amounts of mRNAs were injected into defolliculated oocytes the next day. Expression of plasmids was analyzed after RNA isolation from oocyte extracts and conducting qPCR analysis with gene-specific primers as described earlier ([30]). The injected oocytes were incubated at 15 °C for 24 h before transport assays were performed. The uptake of radiolabeled substrates was measured after a 30 min incubation in transport buffer (100 mM NaCl, 2 mM KCl, 1 mM CaCl2, 1 mM MgCl2, and 10 mM Hepes, pH 7.4) at room temperature. Uptake was terminated by washing the oocytes three times with arrest buffer containing 20 mM uridine. Individual oocytes were shaken overnight in 10% SDS for complete dissolution, and then the radioactivity was quantified with a Beckman liquid scintillation counter. The data are presented as the mean ± SD (n = 8–12 oocytes). A representative experiment from 3 to 5 independent experiments is presented.

[1] = 3H-Ado 20 μM, sodium-free buffer, read-out: ENT3 IC50 (Ado uptake)
[2] = BA 100 μM, 3H-Ado 20 μM, sodium-free buffer

Row | Structure (SMILES) | IC50 (ENT3; [1]) | ENT3 % uptake inhibition (Ado) (ENT3; [2]) | inhibition of guanosine transport activity of ENT3 (ENT3; BA 100 μM, 3H-guanosine 20 μM) | fold increased transport activity compared with H2O-injected oocytes (ENT2) | Vmax of BA transport by ENT2 (ENT2; oocytes, Fig. 2B) | IC50 (ENT3) | Km (ENT2; oocytes, Fig. 2B) | pH dependence of 3H-CA transport mediated by ENT2 (ENT2; pH 5.5 to pH 7.4)
1 | C[C@H](CCC(=O)O)[C@H]1CC[C@H]2[C@@H]3CC[C@@H]4C[C@H](O)CC[C@]4(C)[C@H]3C[C@H](O)[C@]12C [DCA, deoxycholic acid] | 600 ± 100 nM | 79% and 79.9% | inhibited | 1.78 fold | 3.359 pmol/oocyte∗30 min |  |  | 
2 | C[C@H](CCC(=O)NCCS(=O)(=O)O)[C@H]1CC[C@H]2[C@@H]3[C@H](O)C[C@@H]4C[C@H](O)CC[C@]4(C)[C@H]3C[C@H](O)[C@]12C [TCA, taurocholic acid] |  | 72.3% |  | 2.23 fold |  | 52600 ± 22200 nM |  | 
3 | C[C@H](CCC(=O)O)[C@H]1CC[C@H]2[C@@H]3[C@H](O)C[C@@H]4C[C@H](O)CC[C@]4(C)[C@H]3C[C@H](O)[C@]12C [CA, cholic acid] | 1200 ± 400 nM | 77.1% |  |  | 2.84 pmol/oocyte∗30 min |  | ~195 µM | not dependent on pH
